Assays:
[1] = Tablet pressing followed by PXRD analysis of the solid form; type: physicochemical; conditions: 200 mg tablet with 86 mg imatinib mesylate substance and excipients
Method: XRD diffraction was performed on X-Ray powder diffractometer: Philips X'pert Pro powder diffractometer, Cu-tube, scanning parameters: CuKα radiation, λ=1.5418 Å. Continuous scan at a rate of: 0.02° 2theta/0.3 sec.
Form V, having the main PXRD peaks at 9.9, 11.7, 13.3, 16.6, and 22.1±0.2 degrees two-theta, and all the components presented in the below table were weighed together and mixed to obtain a tablet.
Form X, having the main PXRD peaks at 6.0, 8.6, 11.4, 14.2, and 18.3±0.2 degrees two-theta, and all the components presented in the below table were weighed together and mixed to obtain a tablet.
Amorphous Imatinib mesylate and all the components presented in the below table were weighed together and mixed to obtain a tablet.

[2] = Moisture sensitivity / hygroscopicity of the solid phase noted during drying; type: physicochemical; conditions: filter cake dried under nitrogen stream
Method: Imatinib base (3 g, 0.0061 mole) was suspended in dry ethanol (60 ml). The suspension was cooled to −40° C. and then an ethanol-solution of methanesulfonic acid (0.591 g in 3.59 ml; 0.0061 mole) was added at once. Exactly after 5 min of stirring at −40° C. the seeding crystal (Form IV, 0.1 g) was put into the suspension. The stirring was maintained for additional 25 minutes in the temperature range from −40° C. to −35° C. Then the suspension was let to stay in freezer at −28° C. for 14 hours. In the course of standing, the major part of crystalline phase was created—important requirement is absence of motion. After standing the suspension was diluted with MTBE (50 ml) and crystalline product was filtered. […] Imatinib mesylate (Form IV) was obtained (3.61 g; yield: 90.1%).
Imatinib base (75 g, 0.152 mole) was placed into double-jacketed glass-reactor and suspended with water-1,3-dioxolane mixture (37.5 ml: 712.5 ml). The content of the reactor was kept (for all the time) under gentle nitrogen stream. The temperature was adjusted at 20° C., undiluted methanesulphonic acid (14.21 g, 0.148 mole) was added (at once or dropwise during a few minutes). The two-phase liquid was stirred cca 50 min at 20° C. […] The drying process was monitored by measuring LOD (loss on drying)—it was finished when LOD reached 11-12%. […]

[3] = Particle size of the crystalline form; type: physicochemical
[4] = Stability of the crystalline form under pressure and under heating; conditions: solid form

Compound	solid form found by PXRD after the tablet was pressed [1]	hygroscopicity / moisture sensitivity of solid phase [2]	particle size [3]	stability under pressure [4]	stable under heating up to a temperature of [4]
CS(=O)(=O)O.Cc1ccc(NC(=O)c2ccc(CN3CCN(C)CC3)cc2)cc1Nc1nccc(-c2cccnc2)n1 [Amorphous Imatinib mesylate, 4-(4-methylpiperazin-1-ylmethyl)-N-[4-methyl-3-[(4-pyrinin-3-yl)pyrimidin-2-yloamino]phenyl]benzamide mesylate, reference compound]	retaining the amorphous form				
CS(=O)(=O)O.Cc1ccc(NC(=O)c2ccc(CN3CCN(C)CC3)cc2)cc1Nc1nccc(-c2cccnc2)n1 [Form IV, 4-(4-methylpiperazin-1-ylmethyl)-N-[4-methyl-3-[(4-pyrinin-3-yl)pyrimidin-2-yloamino]phenyl]benzamide mesylate]		moisture sensitive	less than 100 microns		
CS(=O)(=O)O.Cc1ccc(NC(=O)c2ccc(CN3CCN(C)CC3)cc2)cc1Nc1nccc(-c2cccnc2)n1 [Form V, 4-(4-methylpiperazin-1-ylmethyl)-N-[4-methyl-3-[(4-pyrinin-3-yl)pyrimidin-2-yloamino]phenyl]benzamide mesylate]	belong to form V			stable under pressure	≤ 80 °C
CS(=O)(=O)O.Cc1ccc(NC(=O)c2ccc(CN3CCN(C)CC3)cc2)cc1Nc1nccc(-c2cccnc2)n1 [Form VI, 4-(4-methylpiperazin-1-ylmethyl)-N-[4-methyl-3-[(4-pyrinin-3-yl)pyrimidin-2-yloamino]phenyl]benzamide mesylate]		very hydroscopic	less than 100 microns		
CS(=O)(=O)O.Cc1ccc(NC(=O)c2ccc(CN3CCN(C)CC3)cc2)cc1Nc1nccc(-c2cccnc2)n1 [Form VII, 4-(4-methylpiperazin-1-ylmethyl)-N-[4-methyl-3-[(4-pyrinin-3-yl)pyrimidin-2-yloamino]phenyl]benzamide mesylate]			less than 100 microns		
CS(=O)(=O)O.Cc1ccc(NC(=O)c2ccc(CN3CCN(C)CC3)cc2)cc1Nc1nccc(-c2cccnc2)n1 [Form X, 4-(4-methylpiperazin-1-ylmethyl)-N-[4-methyl-3-[(4-pyrinin-3-yl)pyrimidin-2-yloamino]phenyl]benzamide mesylate]	belong to form X		less than 100 microns		
